Measured values published in ChEMBL document CHEMBL1201862, “PubChem BioAssay data set” (2004).
Active and inactive are the calls of the source.

Key:
[1] = biological target: T1, Estrogen receptor (Homo sapiens, UniProt P03372); assay: potentiators of ERα–SRC-1 coactivator binding, dose response, biochemical, TR-FRET, ERα LBD (AID 737)
T1 sequence (P03372 whole entry): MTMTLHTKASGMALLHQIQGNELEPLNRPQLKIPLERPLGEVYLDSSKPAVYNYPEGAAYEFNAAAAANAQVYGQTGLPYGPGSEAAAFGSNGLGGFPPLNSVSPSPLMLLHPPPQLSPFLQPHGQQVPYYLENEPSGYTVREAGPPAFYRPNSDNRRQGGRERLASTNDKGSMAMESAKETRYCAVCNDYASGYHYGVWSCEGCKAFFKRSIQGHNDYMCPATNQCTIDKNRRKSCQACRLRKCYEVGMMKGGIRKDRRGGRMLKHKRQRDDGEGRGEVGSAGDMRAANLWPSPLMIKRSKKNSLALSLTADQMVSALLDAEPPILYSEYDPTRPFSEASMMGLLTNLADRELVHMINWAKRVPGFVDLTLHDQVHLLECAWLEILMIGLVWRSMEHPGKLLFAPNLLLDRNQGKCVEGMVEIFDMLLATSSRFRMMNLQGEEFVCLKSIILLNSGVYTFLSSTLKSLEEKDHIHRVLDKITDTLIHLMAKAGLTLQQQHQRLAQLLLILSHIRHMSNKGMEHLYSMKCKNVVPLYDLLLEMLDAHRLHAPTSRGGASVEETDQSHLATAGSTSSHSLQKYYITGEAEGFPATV

[2] = biological target: T2, E3 ubiquitin-protein ligase XIAP (Homo sapiens, UniProt P98170); assay: Counter Screen using XIAP-Bir3 for Chemical Antagonists of Bir1/2 domains of IAP-family anti-apoptotic proteins. [Related pubchem assays (depositor defined):AID1018, AID1449, AID1514, AID1638, AID1749, AID1750, AID488957, AID488963]
T2 sequence (P98170 whole entry): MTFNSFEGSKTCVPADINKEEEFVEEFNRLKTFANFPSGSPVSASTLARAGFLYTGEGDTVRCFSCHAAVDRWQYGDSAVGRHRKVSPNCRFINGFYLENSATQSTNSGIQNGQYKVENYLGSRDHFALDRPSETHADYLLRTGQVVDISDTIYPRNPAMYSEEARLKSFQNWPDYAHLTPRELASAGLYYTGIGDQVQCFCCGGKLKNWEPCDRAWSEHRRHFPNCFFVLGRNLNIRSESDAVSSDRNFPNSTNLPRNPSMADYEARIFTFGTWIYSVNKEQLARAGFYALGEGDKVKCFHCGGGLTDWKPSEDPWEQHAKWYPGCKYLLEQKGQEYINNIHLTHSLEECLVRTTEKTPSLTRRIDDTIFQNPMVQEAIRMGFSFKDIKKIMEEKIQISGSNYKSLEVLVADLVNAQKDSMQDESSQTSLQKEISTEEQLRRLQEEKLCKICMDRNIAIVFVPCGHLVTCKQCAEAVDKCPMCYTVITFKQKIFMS

[3] = biological target: T2, E3 ubiquitin-protein ligase XIAP; assay: XIAP antagonists, biochemical, IAP family, fluorescence polarization (AID 1018); assay type: functional
[4] = biological target: Aspartyl aminopeptidase (Plasmodium falciparum 3D7, UniProt Q8I2J3); assay: Counterscreen for inhibitors of M1 and M17 aminopeptidases: QFRET-based biochemical high throughput dose response assay for inhibitors of the Plasmodium falciparum M18 Aspartyl Aminopeptidase (PFM18AAP). [Related PubChem assays: 1619 (Screening assay (M17LAP inhibitors).), 1445 (Screening assay (M1AAP inhibitors).)]
Chain of Aspartyl aminopeptidase (Q8I2J3 whole entry): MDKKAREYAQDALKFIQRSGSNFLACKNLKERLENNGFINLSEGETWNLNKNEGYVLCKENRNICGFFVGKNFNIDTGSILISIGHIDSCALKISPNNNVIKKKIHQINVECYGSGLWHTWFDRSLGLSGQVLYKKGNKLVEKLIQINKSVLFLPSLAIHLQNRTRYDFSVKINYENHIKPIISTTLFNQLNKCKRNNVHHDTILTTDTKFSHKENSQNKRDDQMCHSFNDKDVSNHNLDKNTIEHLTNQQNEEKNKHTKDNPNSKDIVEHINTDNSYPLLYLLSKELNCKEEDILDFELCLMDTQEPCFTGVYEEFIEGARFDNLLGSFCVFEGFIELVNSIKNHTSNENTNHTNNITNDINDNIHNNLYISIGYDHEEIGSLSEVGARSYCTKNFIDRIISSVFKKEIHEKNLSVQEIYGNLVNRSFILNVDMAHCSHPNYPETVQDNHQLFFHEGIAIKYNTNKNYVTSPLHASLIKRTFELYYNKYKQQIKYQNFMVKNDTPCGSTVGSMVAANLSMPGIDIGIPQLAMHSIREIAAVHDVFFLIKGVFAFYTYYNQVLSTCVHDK

[5] = biological target: T3, Aminopeptidase N (Plasmodium falciparum FcB1/Columbia, UniProt O96935); assay: P. falciparum M1AAP inhibitors, biochemical, fluorogenic H-Leu-NHMec substrate, 1536-well (AID 1445); parameters: species or system Plasmodium falciparum 3D7, 3D7
T3 sequence (O96935 whole entry): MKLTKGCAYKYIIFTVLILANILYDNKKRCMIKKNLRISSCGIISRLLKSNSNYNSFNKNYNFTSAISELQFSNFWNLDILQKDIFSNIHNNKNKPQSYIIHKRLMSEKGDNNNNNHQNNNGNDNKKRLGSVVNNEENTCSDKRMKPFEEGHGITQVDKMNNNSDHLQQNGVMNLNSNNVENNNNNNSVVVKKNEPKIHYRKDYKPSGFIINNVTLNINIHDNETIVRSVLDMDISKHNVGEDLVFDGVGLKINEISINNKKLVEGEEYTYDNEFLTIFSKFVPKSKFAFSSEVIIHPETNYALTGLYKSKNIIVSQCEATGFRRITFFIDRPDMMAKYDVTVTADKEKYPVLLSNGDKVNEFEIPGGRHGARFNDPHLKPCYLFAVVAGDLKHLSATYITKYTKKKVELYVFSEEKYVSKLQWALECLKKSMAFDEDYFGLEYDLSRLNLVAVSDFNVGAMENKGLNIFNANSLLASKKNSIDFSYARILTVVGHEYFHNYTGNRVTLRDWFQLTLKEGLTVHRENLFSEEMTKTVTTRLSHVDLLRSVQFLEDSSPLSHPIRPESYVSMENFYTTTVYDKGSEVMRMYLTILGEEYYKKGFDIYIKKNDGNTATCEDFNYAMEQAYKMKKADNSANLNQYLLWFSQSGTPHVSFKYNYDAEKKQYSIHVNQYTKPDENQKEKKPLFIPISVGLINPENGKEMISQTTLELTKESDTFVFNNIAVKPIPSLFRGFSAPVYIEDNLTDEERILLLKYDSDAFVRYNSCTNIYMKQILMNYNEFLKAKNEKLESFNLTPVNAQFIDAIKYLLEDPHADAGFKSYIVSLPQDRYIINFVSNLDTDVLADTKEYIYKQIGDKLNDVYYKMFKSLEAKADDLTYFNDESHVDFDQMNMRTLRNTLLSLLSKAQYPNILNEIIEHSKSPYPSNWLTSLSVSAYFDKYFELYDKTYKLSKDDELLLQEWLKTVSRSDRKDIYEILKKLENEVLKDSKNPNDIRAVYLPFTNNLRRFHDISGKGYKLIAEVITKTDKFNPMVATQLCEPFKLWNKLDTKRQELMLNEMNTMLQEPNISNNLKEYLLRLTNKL

[6] = biological target: Procathepsin L (Homo sapiens, UniProt P07711); assay: cathepsin L inhibitors, dose response, counter-screen for M1/M17 aminopeptidase inhibitor project, biochemical, QFRET, 1536-well (AID 2214)
Chain of Procathepsin L (P07711 whole entry): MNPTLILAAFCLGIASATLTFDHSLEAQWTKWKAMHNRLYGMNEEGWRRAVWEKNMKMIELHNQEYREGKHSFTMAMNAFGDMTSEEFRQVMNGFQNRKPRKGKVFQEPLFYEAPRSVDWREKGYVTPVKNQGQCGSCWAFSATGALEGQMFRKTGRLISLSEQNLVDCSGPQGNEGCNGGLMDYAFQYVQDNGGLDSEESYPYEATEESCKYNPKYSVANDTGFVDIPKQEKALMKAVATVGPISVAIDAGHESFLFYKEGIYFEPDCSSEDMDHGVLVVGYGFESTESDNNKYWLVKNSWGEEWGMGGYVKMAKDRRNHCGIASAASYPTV

[7] = biological target: T4, Streptokinase A (Streptococcus pyogenes serotype M1, UniProt P10520); assay: S. pyogenes streptokinase expression inhibitors, potency, dose response, plasminogen activation absorbance, OD405 (AID 1914); assay type: functional, Streptococcus pyogenes M1 GAS;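 further: secreted streptokinase activity via plasminogen activation per viability signal from cell pellet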
T4 sequence (P10520 whole entry): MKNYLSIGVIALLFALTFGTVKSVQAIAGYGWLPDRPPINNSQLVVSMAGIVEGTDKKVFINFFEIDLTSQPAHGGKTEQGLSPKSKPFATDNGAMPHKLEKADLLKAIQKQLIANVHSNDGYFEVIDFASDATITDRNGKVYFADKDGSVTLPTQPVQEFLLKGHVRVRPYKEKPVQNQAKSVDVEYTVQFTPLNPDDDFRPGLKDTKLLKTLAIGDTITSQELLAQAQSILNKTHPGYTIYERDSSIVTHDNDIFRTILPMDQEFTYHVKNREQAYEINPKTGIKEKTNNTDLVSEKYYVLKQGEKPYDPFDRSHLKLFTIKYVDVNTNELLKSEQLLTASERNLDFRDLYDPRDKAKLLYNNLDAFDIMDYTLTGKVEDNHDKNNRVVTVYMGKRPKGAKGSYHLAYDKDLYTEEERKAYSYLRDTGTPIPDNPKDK

[8] = biological target: Aryl hydrocarbon receptor (Homo sapiens, UniProt P35869); assay: Luminescence-based cell-based high throughput dose response assay for activators of the Aryl Hydrocarbon Receptor (AHR). [Related pubchem assays: 2796 (Primary screen (AHR activators in singlicate)), 2845 (Confirmation screen (AHR activators in triplicate)), 434939 (Counterscreen (PXR activators in triplicate)), 2804 (Summary (AHR activators))]; assay type: ADME
Chain of Aryl hydrocarbon receptor (P35869 whole entry): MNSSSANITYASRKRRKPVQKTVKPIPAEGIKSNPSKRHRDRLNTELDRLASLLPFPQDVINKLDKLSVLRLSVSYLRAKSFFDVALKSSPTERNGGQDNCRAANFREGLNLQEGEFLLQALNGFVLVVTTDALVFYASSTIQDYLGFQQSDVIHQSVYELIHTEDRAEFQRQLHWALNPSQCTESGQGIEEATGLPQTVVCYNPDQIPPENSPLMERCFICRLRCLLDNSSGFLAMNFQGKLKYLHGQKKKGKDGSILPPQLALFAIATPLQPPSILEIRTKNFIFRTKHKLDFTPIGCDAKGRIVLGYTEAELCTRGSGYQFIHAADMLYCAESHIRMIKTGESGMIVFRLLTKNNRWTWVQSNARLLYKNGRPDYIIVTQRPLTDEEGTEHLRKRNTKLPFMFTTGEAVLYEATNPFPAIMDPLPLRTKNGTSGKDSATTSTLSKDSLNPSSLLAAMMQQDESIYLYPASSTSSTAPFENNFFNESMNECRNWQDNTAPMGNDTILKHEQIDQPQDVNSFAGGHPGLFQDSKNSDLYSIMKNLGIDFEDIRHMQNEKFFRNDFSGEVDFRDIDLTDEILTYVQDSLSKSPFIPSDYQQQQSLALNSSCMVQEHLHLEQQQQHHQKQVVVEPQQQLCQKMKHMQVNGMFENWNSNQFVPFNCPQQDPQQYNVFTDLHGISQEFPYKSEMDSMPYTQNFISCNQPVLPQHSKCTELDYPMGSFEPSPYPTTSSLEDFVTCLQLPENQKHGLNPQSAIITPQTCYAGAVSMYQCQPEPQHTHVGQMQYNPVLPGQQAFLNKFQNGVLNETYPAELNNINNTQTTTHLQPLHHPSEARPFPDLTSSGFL

[9] = biological target: Peroxisome proliferator-activated receptor gamma/Nuclear receptor coactivator 2 (Homo sapiens, UniProt P37231); assay type: functional;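 further: agonist potency for raising coactivator recruitment to the receptor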
[10] = biological target: Peroxisome proliferator-activated receptor gamma/Nuclear receptor coactivator 1 (Homo sapiens, UniProt P37231); assay type: functional;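 further: agonist potency as compounds enhance coactivator SRC-1 recruitment to PPARgamma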
[11] = biological target: Peroxisome proliferator-activated receptor gamma/Nuclear receptor coactivator 3 (Homo sapiens, UniProt P37231); assay type: functional;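 further: agonist potency for raising coactivator recruitment to the receptor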
Chain of Peroxisome proliferator-activated receptor gamma/Nuclear receptor coactivator 3 (P37231 whole entry): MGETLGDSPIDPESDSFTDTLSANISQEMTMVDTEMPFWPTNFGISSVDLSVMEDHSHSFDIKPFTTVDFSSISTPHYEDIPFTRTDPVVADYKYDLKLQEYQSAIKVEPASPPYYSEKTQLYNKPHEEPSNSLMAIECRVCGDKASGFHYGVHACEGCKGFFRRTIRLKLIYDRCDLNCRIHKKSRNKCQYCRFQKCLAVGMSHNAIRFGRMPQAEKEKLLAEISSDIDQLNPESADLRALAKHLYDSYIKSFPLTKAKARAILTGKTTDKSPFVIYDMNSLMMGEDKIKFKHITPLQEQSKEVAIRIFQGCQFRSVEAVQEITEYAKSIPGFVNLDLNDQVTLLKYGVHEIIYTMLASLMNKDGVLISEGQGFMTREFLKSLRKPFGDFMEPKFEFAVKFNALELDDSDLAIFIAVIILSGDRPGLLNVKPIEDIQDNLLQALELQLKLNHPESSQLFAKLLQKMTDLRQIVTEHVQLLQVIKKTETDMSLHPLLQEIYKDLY
Chain of Peroxisome proliferator-activated receptor gamma/Nuclear receptor coactivator 3 (Q9Y6Q9 whole entry, further chain): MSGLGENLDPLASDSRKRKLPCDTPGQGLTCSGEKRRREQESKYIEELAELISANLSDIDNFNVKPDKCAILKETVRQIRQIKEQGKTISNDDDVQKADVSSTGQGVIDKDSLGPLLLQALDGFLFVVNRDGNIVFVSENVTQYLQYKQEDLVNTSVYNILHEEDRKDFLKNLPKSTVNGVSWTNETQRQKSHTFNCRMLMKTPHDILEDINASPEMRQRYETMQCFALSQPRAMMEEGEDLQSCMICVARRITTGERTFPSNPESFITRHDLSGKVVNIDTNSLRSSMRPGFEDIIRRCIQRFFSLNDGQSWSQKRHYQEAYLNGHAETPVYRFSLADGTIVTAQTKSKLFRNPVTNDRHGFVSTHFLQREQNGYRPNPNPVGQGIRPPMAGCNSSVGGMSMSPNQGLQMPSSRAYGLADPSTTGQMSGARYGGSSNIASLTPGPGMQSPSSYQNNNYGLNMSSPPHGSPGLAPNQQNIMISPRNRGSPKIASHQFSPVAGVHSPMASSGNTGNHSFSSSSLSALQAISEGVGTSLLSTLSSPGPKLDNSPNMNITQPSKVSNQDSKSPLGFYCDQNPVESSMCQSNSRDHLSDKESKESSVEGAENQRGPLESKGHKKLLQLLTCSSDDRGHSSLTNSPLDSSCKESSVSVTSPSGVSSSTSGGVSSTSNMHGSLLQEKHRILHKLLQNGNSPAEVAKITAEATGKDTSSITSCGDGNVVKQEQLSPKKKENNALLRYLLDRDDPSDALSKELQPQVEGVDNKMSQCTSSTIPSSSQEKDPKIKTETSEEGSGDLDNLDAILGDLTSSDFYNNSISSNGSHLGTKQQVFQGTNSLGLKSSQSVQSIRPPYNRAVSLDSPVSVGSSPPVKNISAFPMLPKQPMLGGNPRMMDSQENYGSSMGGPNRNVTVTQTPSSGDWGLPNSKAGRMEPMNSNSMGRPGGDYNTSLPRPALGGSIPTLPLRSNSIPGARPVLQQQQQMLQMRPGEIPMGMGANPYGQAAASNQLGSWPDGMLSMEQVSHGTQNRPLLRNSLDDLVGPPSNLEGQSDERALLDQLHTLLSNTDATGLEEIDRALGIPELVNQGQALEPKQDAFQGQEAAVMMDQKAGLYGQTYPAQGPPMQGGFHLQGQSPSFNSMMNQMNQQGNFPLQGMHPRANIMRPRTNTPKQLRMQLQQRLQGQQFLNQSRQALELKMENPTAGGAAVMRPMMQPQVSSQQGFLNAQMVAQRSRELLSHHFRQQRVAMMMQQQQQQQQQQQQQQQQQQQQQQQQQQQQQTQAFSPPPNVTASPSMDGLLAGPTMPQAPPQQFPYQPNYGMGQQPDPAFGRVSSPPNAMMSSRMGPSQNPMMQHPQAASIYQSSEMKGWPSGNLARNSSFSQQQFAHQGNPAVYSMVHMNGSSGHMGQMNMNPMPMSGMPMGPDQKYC

[12] = Luminescence Cell-Based Dose Response to Identify Activators of 5'UTR Stem-Loop Driven Prion Protein mRNA Translation in H4-C Neuroglioblastoma Cells. [Related pubchem assays: 1829 (Project Summary), 1814 (Primary HTS)]; assay type: functional
[13] = Luminescence Cell-Based Dose Response HTS to Identify Activators of Luciferase Translation or Activity in H4 […] Cells. [Related pubchem assays: 1829 (Project Summary), 1814 (Primary HTS)]; assay type: functional
[14] = system: H4; assay: Luminescence Cell-Based Dose Response HTS to Identify Activators of 5'UTR Stem-Loop Driven Prion Protein mRNA Translation in H4 Neuroglioblastoma Cells. [Related pubchem assays: 1829 (Project Summary), 1814 (Primary HTS)]; assay type: functional; settings: Homo sapiens
[15] = Luminescence Cell-Based Dose Response to Identify Activators of Luciferase Translation or Activity in H4-C Neuroglioblastoma Cells. [Related pubchem assays: 1829 (Project Summary), 1814 (Primary HTS)]; assay type: functional
[16] = Luminescence Cell-Based Dose Confirmation to Identify Activators of 5'UTR Stem-Loop Driven Alpha-Synuclein mRNA Translation in H4 Neuroglioblastoma Cells. [Related pubchem assays: 1829 (Project Summary), 1814 (Primary HTS)]; assay type: functional
[17] = biological target: Protein-tyrosine kinase 2-beta (Homo sapiens, UniProt Q14289);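 further: potency of inhibitors of PYK2 kinase phosphorylation of poly-GT substrate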

SMILES: COc1ccccc1-n1c(SCC(=O)NC2CCCCC2)nc2c(c1=O)SCC2
- EC50 [1]: 6.62 µM (not active)

SMILES: CC(=O)N1CCCc2cc(S(=O)(=O)N(CC(C)C)CC(C)C)ccc21
- IC50 [2]: > 100 µM (inactive)
- IC50 [3]: > 100 µM (not active)

SMILES: O=C(O)CCC(=O)N1N=C(c2c(O)nc3ccc(Cl)cc3c2-c2ccccc2)CC1c1cccs1 (stereo not drawn)
- IC50 [4]: > 73.5 µM (not active)
- IC50 [5]: 5.76 µM (active)
- IC50 [6]: > 59.6 µM (not active)

SMILES: NC(=O)c1oc2ccccc2c1NC(=O)c1nc2ccccc2s1
- EC50 [1]: 13.4 µM (active)

SMILES: Cc1ccc(NC(=S)c2nc3ccccc3[nH]2)c(C)c1
- EC50 [7]: > 150 µM (not active)
- EC50 [8]: 3.65 µM (active)

SMILES: O=C(COC(=O)c1sc2ccccc2c1Cl)Nc1ncc(Cl)cc1Cl
- EC50 [9]: 18.8 µM (not active)
- EC50 [10]: 21.6 µM (not active)
- EC50 [11]: 25.5 µM (not active)

SMILES: CC(C)(C)c1ccc(OC(=O)N2CCCCC2)cc1
- EC50 [12]: 1.01 µM (active)
- EC50 [13]: < 0.1 µM (active)
- EC50 [14]: 44.5 µM (active)
- EC50 [15]: 0.364 µM (active)
- EC50 [16]: 1.13 µM (active)

SMILES: Cc1ccc(OC(=O)c2ccccc2P(=O)(O)O)cc1
- IC50 [17]: 9.74 µM (active)
